Measurements taken from article PMC10304486, “The FilZ Protein Contains a Single PilZ Domain and Facilitates the Swarming Motility of Pseudoalteromonas sp. SM9913” (Microorganisms, 2023).

Experiments:
Assay in all cases: isothermal titration calorimetry
Assay type in all cases: binding
FilZ [1] = biological target: T1, FilZ (Pseudoalteromonas tetraodonis, UniProt A0AA37S473, G58A)
T1 construct: gene GCM10007914_23770; single PilZ domain protein

FilZ [2] = biological target: T2, FilZ (Pseudoalteromonas tetraodonis, UniProt A0AA37S473, G101A)
T2 construct: gene GCM10007914_23770; single PilZ domain protein
T2 sequence (A0AA37S473 entry or part of it G101A): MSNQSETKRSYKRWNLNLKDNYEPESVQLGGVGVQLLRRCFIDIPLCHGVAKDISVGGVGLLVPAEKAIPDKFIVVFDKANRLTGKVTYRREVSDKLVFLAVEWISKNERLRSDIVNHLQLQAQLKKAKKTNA

FilZ [3] = biological target: T3, FilZ (Pseudoalteromonas tetraodonis, UniProt A0AA37S473, R9A)
T3 construct: gene GCM10007914_23770; single PilZ domain protein
T3 sequence (A0AA37S473 entry or part of it R9A): as the sequence (A0AA37S473 entry or part of it G101A) above, with R9A, A101G counted along it

FilZ [4] = biological target: T4, FilZ (Pseudoalteromonas tetraodonis, UniProt A0AA37S473, D53A)
T4 construct: gene GCM10007914_23770; single PilZ domain protein
T4 sequence (A0AA37S473 entry or part of it D53A): as the sequence (A0AA37S473 entry or part of it G101A) above, with D53A, A101G counted along it

FilZ [5] = biological target: T5, FilZ (Pseudoalteromonas tetraodonis, UniProt A0AA37S473, R13A)
T5 construct: gene GCM10007914_23770; single PilZ domain protein
T5 sequence (A0AA37S473 entry or part of it R13A): as the sequence (A0AA37S473 entry or part of it G101A) above, with R13A, A101G counted along it

FilZ [6] = biological target: T6, FilZ (Pseudoalteromonas tetraodonis, UniProt A0AA37S473)
T6 construct: gene GCM10007914_23770; single PilZ domain protein
T6 sequence (A0AA37S473 1-133): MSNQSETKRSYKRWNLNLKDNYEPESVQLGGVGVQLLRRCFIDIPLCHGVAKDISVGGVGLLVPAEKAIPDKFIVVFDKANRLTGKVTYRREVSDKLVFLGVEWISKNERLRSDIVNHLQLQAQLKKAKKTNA

T1 sequence (A0AA37S473 entry or part of it G58A): as the sequence (A0AA37S473 entry or part of it G101A) above, with G58A, A101G counted along it

Kd (FilZ [6]): 230 nM
Compound: Nc1nc2c(ncn2[C@@H]2O[C@@H]3COP(=O)(O)O[C@H]4[C@@H](O)[C@H](n5cnc6c(=O)[nH]c(N)nc65)O[C@@H]4COP(=O)(O)O[C@H]3[C@H]2O)c(=O)[nH]1 [c-di-GMP]
completely lost the ability to bind (FilZ [1]): Mutants R9A, R13A, D53A, G58A, and G101A all completely lost the ability to bind c-di-GMP
completely lost the ability to bind (FilZ [2]): Mutants R9A, R13A, D53A, G58A, and G101A all completely lost the ability to bind c-di-GMP
completely lost the ability to bind (FilZ [3]): Mutants R9A, R13A, D53A, G58A, and G101A all completely lost the ability to bind c-di-GMP
completely lost the ability to bind (FilZ [4]): Mutants R9A, R13A, D53A, G58A, and G101A all completely lost the ability to bind c-di-GMP
completely lost the ability to bind (FilZ [5]): Mutants R9A, R13A, D53A, G58A, and G101A all completely lost the ability to bind c-di-GMP
